{"source": "patent US20220119856A1", "about": "“STALL SIDE METHOD FOR THE DETECTION OF BACTERIA IN DAIRY CATTLE” (TRANSFORMATIVE TECHNOLOGIES, priority 2019, published 2022)", "key": {"Apyrase": {"target": "T1, Apyrase (Solanum tuberosum, UniProt P80595)", "T1 construct": "purchased Sigma Chemical A6535", "T1 sequence (P80595 1-454)": "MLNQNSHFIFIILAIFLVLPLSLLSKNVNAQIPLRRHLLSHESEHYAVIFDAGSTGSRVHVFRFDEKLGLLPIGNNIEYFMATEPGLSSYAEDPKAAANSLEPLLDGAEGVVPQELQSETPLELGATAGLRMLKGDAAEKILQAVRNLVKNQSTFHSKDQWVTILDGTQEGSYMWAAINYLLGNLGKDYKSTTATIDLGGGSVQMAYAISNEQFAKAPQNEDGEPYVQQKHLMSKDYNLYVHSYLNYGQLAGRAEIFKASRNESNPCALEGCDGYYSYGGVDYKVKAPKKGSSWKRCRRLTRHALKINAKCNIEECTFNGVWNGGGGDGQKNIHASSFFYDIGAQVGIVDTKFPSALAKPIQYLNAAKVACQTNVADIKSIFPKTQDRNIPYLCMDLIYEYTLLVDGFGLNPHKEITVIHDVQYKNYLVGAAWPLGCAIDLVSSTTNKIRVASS", "experiment": "Inactivation of excess Apyrase in raw Bovine milk by surfactants, signal after ATP standard added", "type": "biochemical", "conditions": "50 ul raw Bovine milk pretreated with 284 mU Apyrase", "method": "It is important to eliminate any excess Apyrase that may remain in the raw Bovine milk sample after treatment with the Apyrase enzyme that was used to eliminate endogenous ATP in Example #4. […] Among the reagents evaluated were: dimethyldioctadecylammonium chloride, laureltrimethylammonium bromide (DTAB), benzyldimethyldodecylammonium bromide (BDDABr), and cetyl trimethylammonium bromide (CTAB). The experiment was performed by adding between 0.02% and 1% of the selected surfactant to 50 ul of raw Bovine milk that had treated previously been treated with 284 mU of Apyrase as detailed in example #4. The levels of ATP were confirmed by adding 50 uL of Promega luciferin-luciferase reagent (containing 25 mM HEPES buffer (pH 7.5), 40 pg luciferase, 100 pM luciferin, and 10 mM MgSO4). As expected the readings determined on the Hygiena Ensure Luminometer were too low to measure, since all of the ATP had already been eliminated by Apyrase treatment in Example #4. After the initially readings were determined as described above, 10 uL of a 10^−8M solution of ATP standard (Sigma Chemical) was added to the samples above and the bioluminescent signal was determined on a Hygiena Ensure Luminometer. As expected a signal was now detected, since all of the excess Apyrase added earlier had been eliminated by the surfactants being evaluated. The best results were seen when the detergents benzyldimethyldodecylammonium bromide (BDDABr) at 0.05% concentration and, laureltrimethylammonium bromide (DTAB) at 0.5% and 1.0% concentrations were added to the samples."}, "[1]": {"conditions": "Sigma Chemical A6535, vendor specification; cited from earlier work"}, "[2]": {"experiment": "Elimination of endogenous ATP in raw Bovine milk, luciferin-luciferase readout", "type": "biochemical", "method": "All assays were performed using 50 uL of raw Bovine milk and 50 uL of Promega luciferin-luciferase reagent (containing 25 mM HEPES buffer (pH 7.5), 40 pg luciferase, 100 pM luciferin, and 10mM MgSO4). Bioluminescent measurements were determined using the Hygiena Ensure System. The test was performed in both 100% and 50% raw Bovine milk. […] At a concentration of 284 mUnits the apyrase is able to deplete the endogenous ATP in 50 μL of raw milk in less than 30 seconds. The diminution of ATP was so fast with higher concentrations of Apyrase (diluting the enzyme) resulting in the inability to take meaningful reading, since all of the ATP was gone within 10 seconds. There are numerous commercially available ATP-degrading enzymes that can be tested for this purpose, but in our system, the Apyrase enzyme appears more than sufficient."}, "S. aureus": {"tested_on": "S. aureus", "experiment": "Rupture of gram-positive bacteria by lytic enzyme, read by bioluminescence of released ATP", "type": "cell-based", "conditions": "0.05% enzyme, PBS buffer, mastitic milk or healthy milk", "source_text": "As the goal of this invention is to target and detect only gram positive organisms active in mastitis such as: S. aureus, Coagulase negative staphylococci (CoNS) and S. uberi, it is important to identify lytic enzymes that can effectively rupture the cell walls of these pathogens in the presence of raw Bovine milk. […] The action against specific gram-positive organisms of these enzymes has been verified in PBS buffered solutions, but their ability to rupture bacteria had to be verified to in raw milk. The first candidates tested in for their activity in Bovine milk were Lysostaphin (Lyso) which attacks S. aureus, and Streptococcal phage lytic enzyme (PlyC) which attacks Streptococcus uberis. In all reactions, a concentration a of 0.05% of the phage lytic enzyme was used to evaluate the time required to rupture the cell wall of gram-positive bacteria in raw Bovine milk, as well as in a Phosphate-buffered saline (PBS) solution. It was determined that that in one hour, PlyC can eradicate up to 6 logs of S. uberis in PBS buffer, and either mastitic milk or healthy milk. The degree of lysing was determined by bioluminescence produced by the ATP released from the ruptured cells as described earlier. We then lowered the bacterial load to 2 logs of S. uberis in PBS buffer, and either mastitic milk or healthy milk, and it was determined that the PlyC can eradicate this bacterial load in 3 minutes or less. Similar experiments were performed with Lysostaphin (Lyso), which attacks S. aureus, and we determined we that can eradicate up to 6 logs of S. aureus in PBS buffer, and either mastitic milk or healthy milk in under 25 minutes. We then lowered the bacterial load to 2 logs of S. aureus in PBS buffer and either mastitic milk or healthy milk, and it was determined that the Lyso can eradicate this bacterial load in 2 minutes or less."}, "[3]": {"tested_on": "somatic cells present in raw Bovine milk", "experiment": "Rupture of somatic cells in raw Bovine milk, ATP released", "type": "cell-based", "conditions": "in under 90 seconds; raw Bovine milk with predetermined somatic cell counts", "method": "A number of surfactants (detergents) were evaluated for their ability to rupture the somatic cells present in raw Bovine milk samples. Among the reagents tested were Triton X100 (Sigma Chemical) and Neonol AF9-10 (Nonoxynol-9) (Elarum Petrochemicals). Determinations using both surfactants were performed on raw Bovine milk samples in which somatic cell counts were predetermined. […] The number of somatic cell ruptured was determined by quantifying the ATP released in 50 uL samples of treated raw Bovine milk (as a function of time) using 50 uL of Promega luciferin-luciferase reagent (containing 25 mM HEPES buffer (pH 7.5), 40 pg luciferase, 100 pM luciferin, and 10 mM MgSO4). Bioluminescent measurements were performed using a Hygiena Ensure luminometer and all readings were blank corrected."}}}
{"compound": "CCCCCCCCCCCC[N+](C)(C)Cc1ccccc1.[Br-]", "note": "[BDDABr, benzyldimethyldodecylammonium bromide]", "values": [{"measurement": "inactivation of Apyrase (in words)", "setting": "Apyrase; 0.05% surfactant", "result": "best results"}]}
{"compound": "CCCCCCCCCCCC[N+](C)(C)C.[Br-]", "note": "[DTAB, laureltrimethylammonium bromide]", "values": [{"measurement": "inactivation of Apyrase (in words)", "setting": "Apyrase; 0.5% surfactant", "result": "best results"}, {"measurement": "inactivation of Apyrase (in words)", "setting": "Apyrase; 1.0% surfactant", "result": "best results"}]}
{"compound": "Apyrase", "values": [{"measurement": "ATPase activity of the enzyme preparation", "setting": "[1]", "result": "≥ 200", "unit": "units/mg protein"}, {"measurement": "elimination of endogenous ATP (in words)", "setting": "[2]; 100% and 50% raw Bovine milk", "result": "works well"}, {"measurement": "time to deplete the endogenous ATP", "setting": "[2]; 284 mUnits apyrase, 50 μL of raw milk", "result": "less than 30 seconds"}, {"measurement": "time until all of the ATP was gone", "setting": "[2]; higher concentrations of Apyrase", "result": "≤ 10", "unit": "s"}]}
{"compound": "Lysostaphin: Lysostaphin (Lyso) which attacks S. aureus", "values": [{"measurement": "time to eradicate bacterial load of 2 logs of S. aureus", "setting": "S. aureus", "result": "≤ 2", "unit": "minutes"}, {"measurement": "time to eradicate up to 6 logs of S. aureus", "setting": "S. aureus", "result": "under 25 minutes"}, {"measurement": "bacterial load of S. aureus eradicated", "setting": "S. aureus; in under 25 minutes", "result": "up to 6 logs"}]}
{"compound": "Nonoxynol-9 [Neonol-9-10]", "values": [{"measurement": "ability to rupture somatic cells (in words)", "setting": "[3]", "result": "superior to the Triton X100"}]}
